Test results from patent US20090233948A1, “Inhibitors of nucleoside phosphorylases and nucleosidases” (priority 2005, published 2009).
Where two headings read alike, the source gives them in different places.

Biological target: T1, human PNP (Homo sapiens, UniProt P00491)
T1 sequence (P00491 1-289): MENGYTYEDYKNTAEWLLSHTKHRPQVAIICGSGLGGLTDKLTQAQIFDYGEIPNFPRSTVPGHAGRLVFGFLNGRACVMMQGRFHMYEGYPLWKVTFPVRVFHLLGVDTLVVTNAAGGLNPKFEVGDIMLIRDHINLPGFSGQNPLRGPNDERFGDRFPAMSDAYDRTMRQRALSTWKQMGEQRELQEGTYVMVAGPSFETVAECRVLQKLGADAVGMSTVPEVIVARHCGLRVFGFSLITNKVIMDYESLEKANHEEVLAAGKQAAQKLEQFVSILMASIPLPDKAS
Experiment: Inhibition of human PNP: phosphorolysis of inosine, xanthine oxidase coupled spectrophotometric assay (slow-onset tight-binding analysis)
Assay type: biochemical
Conditions: huPNP 1.4 nM, 1 mM inosine, 50 mM KHPO4 pH 7.4, 25° C.
Procedure: Initial (Ki) and equilibrium (Ki*) dissociation constants of DAD-Et-Immucillin-H were determined for human PNP.
Inhibitor dissociation constants for the phosphorolysis of inosine were based on initial and equilibrium reaction rate measurements with varied inhibitor concentrations (Miles, R. W., Tyler, P. C., Furneaux, R. H., Bagdassarian, C. K. and Schramm, V. L. (1998) One-third-the-sites transition state inhibitors for purine nucleoside phosphorylase, Biochemistry 37, 8615-8621; Morrison, J. F. and Walsh, C. T. (1988) The behaviour and significance of slow-binding enzyme inhibitors, Adv. Enzymol. Relat. Areas Mol. Biol. 61, 201-301). […] Hypoxanthine formed by phosphorolysis of inosine was oxidized to uric acid and monitored spectrophotometrically at 293 nm (extinction coefficient for uric acid ε293=12.9 mM^−1cm^−1). Enzyme concentration was adjusted to give absorbance changes not exceeding 1.0 during the time required to characterize initial and final slow-onset inhibition equilibria. […] Ki was determined by fitting the initial rates at different inhibitor concentration to the equation for competitive inhibition: νi=(kcat×S)/(Km(1+I/Ki)+S), where μi is initial reaction rate, kcat is the catalytic turnover number, Km is the Michaelis constant, Ki is the dissociation constant of enzyme-inhibitor complex (EI), I is inhibitor concentration and S is substrate concentration. […]

Structure (SMILES): O=c1[nH]cnc2c(CCN3C[C@@H](CO)[C@H](O)C3)c[nH]c12 [Compound 1, (3S,4S)-1-[2-(9-Deaza-hypoxanthin-9-yl)ethyl]-3-hydroxy-4-hydroxymethylpyrrolidine]
- Ki (after slow onset equilibrium, read-out: Equilibrium dissociation constant (Ki*)): 0.46 ± 0.05 nM
- Ki (initial inhibitor binding step, read-out: Initial dissociation constant (Ki)): 1.6 ± 0.3 nM
